Where a name gives a salt, the structure may show the parent alone. Marks after values point to notes of the source that are not given here.
Experiments:
rats = conditions: ip, […]
mice [1] = experiment: Rotarod test (neurotoxicity); type: in vivo; conditions: ip, […];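 note: in vivo neurotoxicity screen run within the NIH Epilepsy Therapy Screening Program (ETSP, formerly Anticonvulsant Screening Program)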
CYP2A6 = target: T1, CYP2A6 (Homo sapiens, UniProt P11509); experiment: Human cytochrome P450 inhibition (human liver microsomes); type: in vitro ADME
T1 construct: tissue celsis X008064-LSL; host or cells: human liver microsomes
T1 sequence (P11509 1-494): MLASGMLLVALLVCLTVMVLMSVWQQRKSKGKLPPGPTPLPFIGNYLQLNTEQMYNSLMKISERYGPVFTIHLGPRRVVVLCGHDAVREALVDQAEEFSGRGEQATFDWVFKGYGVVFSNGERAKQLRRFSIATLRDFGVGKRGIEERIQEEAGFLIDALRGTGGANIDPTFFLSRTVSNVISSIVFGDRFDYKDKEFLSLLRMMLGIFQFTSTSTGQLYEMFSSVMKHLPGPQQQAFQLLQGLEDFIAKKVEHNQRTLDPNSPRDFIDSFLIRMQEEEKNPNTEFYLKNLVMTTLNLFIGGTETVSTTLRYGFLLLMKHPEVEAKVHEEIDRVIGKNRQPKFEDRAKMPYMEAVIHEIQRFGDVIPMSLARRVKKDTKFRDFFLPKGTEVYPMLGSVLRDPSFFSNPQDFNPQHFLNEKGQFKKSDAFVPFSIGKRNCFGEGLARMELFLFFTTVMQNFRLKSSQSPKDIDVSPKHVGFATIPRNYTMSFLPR
Experimental: (§1) The selective reactions utilized for each enzyme were as follows: CYP1A2—phenacetin deethylation, CYP2A6—coumarin 7-hydroxylation, CYP2B6—7-ethoxy-4-trifluoromethyl coumarin O-deethylation, CYP2C9—diclofenac 4-hydroxylation, CYP2C19—S-mephenytoin 4-hydroxylation, CYP2D6—bufuralol 1’-hydroxylation, CYP2E1—chlorzoxazone 6-hydroxylation, CYP3A4—testosterone 6β-hydroxylation. For inhibitory evaluation, human liver microsomes and the tested compound (added in methanol as a solvent) were incubated under aerobic conditions with cytochrome P450 isozyme-selective substrates and excess NADPH at 37 °C. Incubations were for time periods over which the reaction in the absence of the compound, were determined to be linear, and proportional to the protein concentration. The human liver microsomes used were selected from the bank of those commercially available to be especially rich in the amount of the cytochrome P450 isozyme under investigation. However, it is important to note that the microsomes contained all the other isozymes in addition, and if reaction/substrate was less than specific, the other isozymes may have contributed to a minor extent to the enzyme activity determined. Following incubation, the reaction was terminated, an internal standard added, the metabolic products extracted and separated by reverse phase HPLC. Each assay was performed in duplicate, and the mean value calculated. The HPLC elutions were monitored by UV absorbance for all CYP reactions except those for CYP2A6, CYP2B6 and CYP2D6 where fluorescence monitoring was employed. Quantification was by comparison with authentic metabolites.

CYP2E1 = target: T2, CYP2E1 (Homo sapiens, UniProt P05181); experiment: as above; type: in vitro ADME
T2 construct: The human liver microsomes used were selected from the bank of those commercially available; from tissue; host or cells: human liver microsomes
T2 sequence (P05181 whole entry): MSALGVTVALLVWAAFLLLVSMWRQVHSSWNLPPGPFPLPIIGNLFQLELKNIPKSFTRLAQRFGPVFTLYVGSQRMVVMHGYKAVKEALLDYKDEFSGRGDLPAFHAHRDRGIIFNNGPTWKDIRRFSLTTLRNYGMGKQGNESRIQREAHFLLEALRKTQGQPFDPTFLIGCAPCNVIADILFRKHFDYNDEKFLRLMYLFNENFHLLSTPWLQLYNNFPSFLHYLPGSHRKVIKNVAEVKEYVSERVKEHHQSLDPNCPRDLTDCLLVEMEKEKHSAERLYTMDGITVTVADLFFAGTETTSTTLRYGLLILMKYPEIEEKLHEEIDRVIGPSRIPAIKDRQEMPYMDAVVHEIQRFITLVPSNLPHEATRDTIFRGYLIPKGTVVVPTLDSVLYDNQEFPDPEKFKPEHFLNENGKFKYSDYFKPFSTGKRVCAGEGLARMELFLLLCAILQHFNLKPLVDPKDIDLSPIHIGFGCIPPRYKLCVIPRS
Experimental: as §1

[2] = system: CYP3A4 (pregnane X receptor); experiment: In vitro metabolic gene induction studies; type: cell-based, human
[3] = target: T3, hNav1.8/beta3 sodium channel (Homo sapiens, UniProt Q9Y5Y9); experiment: Nav channel electrophysiology (IonWorks Quattro); type: cell-based
T3 construct: host or cells: CHO cells
T3 sequence (Q9Y5Y9 whole entry): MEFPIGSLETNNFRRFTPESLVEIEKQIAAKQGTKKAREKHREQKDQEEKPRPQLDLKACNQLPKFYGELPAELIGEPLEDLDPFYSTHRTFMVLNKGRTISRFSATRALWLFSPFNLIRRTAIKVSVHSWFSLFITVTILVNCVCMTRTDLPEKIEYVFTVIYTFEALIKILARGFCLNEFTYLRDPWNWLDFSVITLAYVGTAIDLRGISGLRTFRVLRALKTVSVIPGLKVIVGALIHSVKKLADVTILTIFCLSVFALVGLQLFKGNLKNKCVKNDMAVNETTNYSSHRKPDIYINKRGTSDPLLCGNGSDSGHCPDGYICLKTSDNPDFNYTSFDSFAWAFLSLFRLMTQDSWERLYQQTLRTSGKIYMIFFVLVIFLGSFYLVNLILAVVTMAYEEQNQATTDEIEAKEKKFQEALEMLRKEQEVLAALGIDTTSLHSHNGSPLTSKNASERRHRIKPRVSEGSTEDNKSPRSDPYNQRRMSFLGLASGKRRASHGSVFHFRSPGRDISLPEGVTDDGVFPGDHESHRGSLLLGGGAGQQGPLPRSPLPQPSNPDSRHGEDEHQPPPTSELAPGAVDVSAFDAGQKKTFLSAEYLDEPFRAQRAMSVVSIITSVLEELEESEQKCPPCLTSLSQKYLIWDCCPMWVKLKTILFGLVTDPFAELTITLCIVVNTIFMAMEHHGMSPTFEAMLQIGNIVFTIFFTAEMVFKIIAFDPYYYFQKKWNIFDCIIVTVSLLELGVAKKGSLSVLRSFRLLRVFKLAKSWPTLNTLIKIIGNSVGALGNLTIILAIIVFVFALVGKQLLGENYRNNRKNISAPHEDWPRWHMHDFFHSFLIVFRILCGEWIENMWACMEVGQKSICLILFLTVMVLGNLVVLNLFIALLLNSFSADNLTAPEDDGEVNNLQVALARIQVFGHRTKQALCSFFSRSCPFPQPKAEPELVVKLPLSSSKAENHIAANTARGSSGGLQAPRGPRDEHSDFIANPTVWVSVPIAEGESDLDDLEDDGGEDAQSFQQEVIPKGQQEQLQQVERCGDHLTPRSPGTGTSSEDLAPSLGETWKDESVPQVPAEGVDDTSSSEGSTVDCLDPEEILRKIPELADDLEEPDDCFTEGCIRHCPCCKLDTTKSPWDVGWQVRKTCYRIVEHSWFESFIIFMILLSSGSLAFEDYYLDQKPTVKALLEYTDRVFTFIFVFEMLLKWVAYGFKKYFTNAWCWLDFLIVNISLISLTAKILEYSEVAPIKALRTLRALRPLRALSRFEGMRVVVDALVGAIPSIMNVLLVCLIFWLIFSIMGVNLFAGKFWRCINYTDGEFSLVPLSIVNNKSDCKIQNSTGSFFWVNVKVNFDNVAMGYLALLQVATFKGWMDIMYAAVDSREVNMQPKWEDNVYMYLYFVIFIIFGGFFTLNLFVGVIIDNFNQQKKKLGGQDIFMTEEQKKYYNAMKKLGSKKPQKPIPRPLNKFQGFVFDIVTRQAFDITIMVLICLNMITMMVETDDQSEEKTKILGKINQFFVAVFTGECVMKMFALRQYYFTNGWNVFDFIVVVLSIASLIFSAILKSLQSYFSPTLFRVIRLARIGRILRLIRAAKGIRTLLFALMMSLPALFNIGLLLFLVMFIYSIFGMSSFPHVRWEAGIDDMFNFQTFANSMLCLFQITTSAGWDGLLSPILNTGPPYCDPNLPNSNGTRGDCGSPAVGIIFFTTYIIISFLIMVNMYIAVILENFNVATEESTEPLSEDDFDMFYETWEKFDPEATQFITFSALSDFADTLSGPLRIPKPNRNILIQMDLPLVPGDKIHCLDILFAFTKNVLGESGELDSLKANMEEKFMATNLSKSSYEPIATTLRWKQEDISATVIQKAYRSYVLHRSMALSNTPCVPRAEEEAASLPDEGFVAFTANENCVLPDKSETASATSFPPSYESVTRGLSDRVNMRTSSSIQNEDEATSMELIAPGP
T3 sequence (Q9NY72 25-215 partner limits assumed): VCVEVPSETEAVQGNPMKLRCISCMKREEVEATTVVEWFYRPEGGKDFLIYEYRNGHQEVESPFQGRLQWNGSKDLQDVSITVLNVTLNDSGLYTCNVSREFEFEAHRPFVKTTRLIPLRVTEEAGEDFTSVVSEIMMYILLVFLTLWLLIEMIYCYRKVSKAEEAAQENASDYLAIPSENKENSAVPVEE

mice [4] = experiment: Hot plate test; type: in vivo
Experimental: The hot plate test was performed as previously described. The mice were ip pre-treated 30 min before experiment either with the compound, dissolved in saline (at doses 10, 30 and 100 mg/kg) or vehicle and were placed on a hot plate set at 55 °C (Hot plate, Omega 2A, Poland). Latency to nocifensive reaction (hind paw licking or jumping) of mice was recorded. The mouse was removed from the plate immediately upon licking a hind paw/jumping or if no response occurred within 60 s (cut-off).

mice [5] = experiment: Formalin test (first screening); type: in vivo; conditions: ip
guinea pigs = experiment: Corneal anesthesia; type: in vivo
murine astrocytes = experiment: Crystal violet (CV) assay; type: cell-based
[6] = Rotarod test (neurotoxicity); type: in vivo, mice; conditions: mouse, in vivo; mice, ip, 0.25 h;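 note: in vivo neurotoxicity screen run within the NIH Epilepsy Therapy Screening Program (ETSP, formerly Anticonvulsant Screening Program)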
mice [7] = experiment: Capsaicin test; type: in vivo
Experimental: Neurogenic pain—capsaicin test. In this test compound dissolved in saline was tested at doses 5, 10, and 30 mg/kg. Compound was administered ip and 30 min later 1.6 μg of capsaicin (Sigma-Aldrich, Germany) dissolved in 20 μL of a mixture containing 0.9% saline and ethanol (5% of the final volume) was injected intraplantarly in the ventral surface of the right-hind paw of each mouse. The animals were observed individually for 5 min following capsaicin injection. In all experimental groups, the amount of time spent on licking, biting, or lifting the injected paw was recorded with a chronometer and was considered as an indicator of nociception.

mice [8] = experiment: animal or person; conditions: Mus musculus, ip, read-out: MES ED50
[9] = Approximate solubility tests; type: physicochemical; conditions: pH 9.9 borate buffer
Experimental: Borate buffer pH = 9.9 was selected as one of standard buffers at this pH range. […] Initially, three organic modifiers were considered: ethanol, dimethyl sulfoxide (DMSO) and 1,4-dioxane. […] Finally, dioxane was selected due to its higher boiling point, which reduced the risk of evaporation during a prolonged experiment. During the experiment, three degradation products were observed (tR = 13 min, tR = 15 min and tR = 17 min).

hNav1.2 sodium channel = target: T4, hNav1.2 sodium channel (Homo sapiens, UniProt Q99250); experiment: Nav channel electrophysiology (IonWorks Quattro); type: cell-based
T4 construct: host or cells: CHO cells
T4 sequence (Q99250 whole entry): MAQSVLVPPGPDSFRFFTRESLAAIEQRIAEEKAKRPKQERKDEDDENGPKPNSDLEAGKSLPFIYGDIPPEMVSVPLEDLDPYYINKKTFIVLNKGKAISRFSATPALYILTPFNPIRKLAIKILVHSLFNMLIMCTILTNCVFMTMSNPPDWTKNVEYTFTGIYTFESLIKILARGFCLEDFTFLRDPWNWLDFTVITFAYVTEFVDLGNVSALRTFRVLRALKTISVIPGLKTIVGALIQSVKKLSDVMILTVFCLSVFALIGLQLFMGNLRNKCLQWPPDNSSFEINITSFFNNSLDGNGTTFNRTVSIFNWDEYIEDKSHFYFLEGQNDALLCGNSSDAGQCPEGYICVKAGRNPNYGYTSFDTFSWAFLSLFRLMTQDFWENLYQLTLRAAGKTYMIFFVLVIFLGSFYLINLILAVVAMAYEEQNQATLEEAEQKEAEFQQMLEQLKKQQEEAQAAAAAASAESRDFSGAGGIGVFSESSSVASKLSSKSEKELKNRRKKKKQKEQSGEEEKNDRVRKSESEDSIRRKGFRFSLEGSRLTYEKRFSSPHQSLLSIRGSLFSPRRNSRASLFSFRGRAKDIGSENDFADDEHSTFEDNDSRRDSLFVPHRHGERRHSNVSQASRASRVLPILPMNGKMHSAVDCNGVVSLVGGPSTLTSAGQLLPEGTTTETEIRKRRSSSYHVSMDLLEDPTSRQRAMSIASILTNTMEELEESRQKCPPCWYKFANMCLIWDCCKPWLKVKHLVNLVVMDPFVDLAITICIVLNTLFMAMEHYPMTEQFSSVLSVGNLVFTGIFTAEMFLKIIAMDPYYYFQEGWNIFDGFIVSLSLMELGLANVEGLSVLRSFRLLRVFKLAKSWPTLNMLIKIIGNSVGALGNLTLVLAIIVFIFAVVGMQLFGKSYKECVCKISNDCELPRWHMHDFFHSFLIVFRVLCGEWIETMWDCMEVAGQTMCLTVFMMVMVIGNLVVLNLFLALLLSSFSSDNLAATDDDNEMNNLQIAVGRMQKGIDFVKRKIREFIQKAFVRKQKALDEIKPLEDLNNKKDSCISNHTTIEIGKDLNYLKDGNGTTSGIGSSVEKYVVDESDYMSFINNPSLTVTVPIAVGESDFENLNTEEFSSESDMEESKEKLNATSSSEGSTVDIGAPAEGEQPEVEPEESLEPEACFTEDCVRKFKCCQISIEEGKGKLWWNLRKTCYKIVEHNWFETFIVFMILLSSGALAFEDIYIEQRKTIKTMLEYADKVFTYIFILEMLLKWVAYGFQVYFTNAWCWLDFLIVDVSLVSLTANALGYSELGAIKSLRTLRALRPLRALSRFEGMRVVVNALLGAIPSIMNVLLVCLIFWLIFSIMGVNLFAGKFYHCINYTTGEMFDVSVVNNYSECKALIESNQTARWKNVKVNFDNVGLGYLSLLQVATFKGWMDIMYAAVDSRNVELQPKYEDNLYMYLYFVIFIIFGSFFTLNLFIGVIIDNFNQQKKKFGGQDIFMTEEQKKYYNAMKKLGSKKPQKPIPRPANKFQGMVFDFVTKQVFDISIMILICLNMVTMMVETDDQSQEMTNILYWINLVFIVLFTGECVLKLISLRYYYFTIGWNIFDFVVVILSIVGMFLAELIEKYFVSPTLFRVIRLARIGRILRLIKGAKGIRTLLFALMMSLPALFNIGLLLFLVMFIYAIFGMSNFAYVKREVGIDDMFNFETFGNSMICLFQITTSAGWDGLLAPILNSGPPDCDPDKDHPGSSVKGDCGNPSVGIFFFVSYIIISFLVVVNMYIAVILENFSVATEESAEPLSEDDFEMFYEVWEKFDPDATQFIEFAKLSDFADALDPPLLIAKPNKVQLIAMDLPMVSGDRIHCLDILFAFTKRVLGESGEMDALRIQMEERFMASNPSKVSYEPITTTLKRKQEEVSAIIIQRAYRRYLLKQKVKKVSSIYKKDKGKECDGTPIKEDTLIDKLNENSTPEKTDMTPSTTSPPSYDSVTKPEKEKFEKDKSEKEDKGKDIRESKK

CCC(CO)NCCOc1c(C)cccc1Cl (stereo not shown) [Compound 4, R,S-2-((2-(2-chloro-6-methylphenoxy)ethyl)amino)butan-1-ol]
LTG-resistant amygdala seizures: active at (rats): 15 mg/kg | Rotarod TD50 (mice [1]; female mice): 40.11 (36.49–42.98) mg/kg | Rotarod TD50 (mice [1]; mice): 54.99 (52.95–56.94) mg/kg | Inhibition type (CYP2A6): Mixed/competitive | Ki (CYP2A6): 371 µM | % inhibition of 500 µM concentration (CYP2A6; 500 µM, substrate at 10 µM): 44 (substrate at 10 µM) % | Inhibition type (CYP2E1): Slight inhibition | % inhibition of 500 µM concentration (CYP2E1; 500 µM, substrate at 500.0 µM): 17 (substrate at 500.0 µM) % | Max induction (calculated) ([2]; @ 200uM): 12 fold | EC50 ([2]; read-out: EC50 (calculated)): 100 µM

CCC(CO)NCCOc1c(C)cccc1Cl (stereo not shown) [KM-408, R,S-2-((2-(2-chloro-6-methylphenoxy)ethyl)amino)butan-1-ol hydrochloride]
IC50 ([3]; 10 Hz): 15.2 µM | IC50 ([3]; Inactivated state): < 10 µM | IC50 ([3]; Tonic block): 44.1 µM | effect on the thermal pain threshold (mice [4]; 10 mg/kg ip): no significant effect | prolongation of nocifensive response (mice [4]; 30 mg/kg ip): 123% | prolongation of nocifensive response (mice [4]; 100 mg/kg ip): 177% | hot plate test: active at (mice [4]; mice, ip): 30 mg/kg | % of effect (II phase) (mice [5]; 30.0 mg/kg): 26.6% | Time of licking paw ± SEM (I phase) (mice [5]; 30.0 mg/kg): 60.6 ± 8.0 s | Time of licking paw ± SEM (II phase) (mice [5]; 30.0 mg/kg): 22.4 ± 6.5 s | formalin test (I phase): active at (mice [5]): 30 mg/kg | Inhibition of pain reaction (guinea pigs; 0.5%, 5 min): 94.4*** % | Inhibition of pain reaction (guinea pigs; 0.5%, 30 min): 8.3% | Inhibition of pain reaction (guinea pigs; […], 5 min): 80.5*** % | corneal anesthesia: active at (guinea pigs; guinea pigs): 0.125% | impact on proliferation (crystal violet) (murine astrocytes): did not exhibit cytotoxic activity and a notable impact on proliferation | TD50 [6]: 64.3 mg/kg | reduction of nociceptive response (mice [7]; 5 mg/kg ip, not significant): 19% | licking response (mice [7]; 10 mg/kg ip): 42.7 ± 5.6 s | reduction of licking response (mice [7]; 10 mg/kg ip): 38% | licking response (mice [7]; 30 mg/kg ip): 27.7 ± 5.7 s | reduction of licking response (mice [7]; 30 mg/kg ip): 60% | ED50 (mice [7]; Mus musculus, mice, ip): 19 mg/kg | ED50 (mice [8]): 13.3 mg/kg | solubility ([9]; 20% dioxane): dissolved fully | solubility ([9]; 20% ethanol): dissolved fully | solubility ([9]; DMSO above 30%): full solubility has not been achieved | IC50 (hNav1.2 sodium channel; 10 Hz): 15.6 µM | IC50 (hNav1.2 sodium channel; Inactivated state): < 10 µM | IC50 (hNav1.2 sodium channel; Tonic block): 48.7 µM
